One experiment concerns cancer cell. The experiment can be described thus: effect of amino acid stereochemistry on cancer cell-killing activity. In kind it is cell-based. From the text: The peptides used were: THR75 (SEQ ID NO: 24, cyc-[PRGPRPValklalklal]); THR77 (SEQ ID NO: 25, cyc-[PRGPRPValklalklaL]); THR78 (SEQ ID NO: 26, cyc-[[…]lklalklaL]; THR79 (SEQ ID NO: 11 cyc-[PRGPRPvalklalklal]). Upper case denotes the L isomer of the amino acids and lower case denotes the D isomer.
It has also been discovered that the stereochemistry of the amino acids in the peptide sequence is relevant to efficacy. Analogues of THR54 (SEQ ID NO: 10) in which certain L-amino-acids have been replaced with D-amino-acids were prepared.
This was THR79 in which was approximately 2-4 times as active as THR54.

A further experiment deals with Fibroblasts. Briefly: Cell killing by cyclic peptides, fibroblasts (Table 2). In kind it is cell-based. Details: key: - - - = No cell killing. The method, then: (§1) Table 2 lists cyclic peptides including the PRGPRP (SEQ ID NO:2) sequence which have no effect on RT112 bladder cancer cells at a concentration of 100 μM.
Experiment [1] deals with RT112 bladder cancer cells. Briefly: Cell killing by cyclic peptides, RT112 (Table 2). In kind it is cell-based, human. Details: key: - - - = No cell killing. Particulars: 100 μM. The method, then:
as §1

Experiment [2] concerns normal human diploid fibroblasts. The experiment can be described thus: MTS cell viability assay, fibroblasts. In kind it is cell-based. The conditions noted are these: 12.5 to 100 μM, 2-4 weeks. The method, then:
The effect of these peptides was tested on both human fibroblasts and H460 human non-small cell […] cancer cells at doses in the range 12.5 to 100 μM. The peptides were tested in vitro by exposure to 100 H460 human non-small cell lung cancer cells, or short term cultures of normal human diploid fibroblasts, in 200 ul of Ham's F12 tissue culture medium supplemented with 10% FCS. Cells were set up in 100 ul on day 0 and 24 hours later a further 100 ul of the same medium containing ×2 the appropriate concentration of peptide over a range of 12.5-100 uM was added. The cells were then incubated at 37° C., 5% CO2 in an humidified incubator for 2-4 weeks.
Cell viability was measured by an MTS assay (CellTiter 96^R Non-Radioactive Cell Proliferation Assay. Promega Corporation, 2800 Woods Hollow Road, Madison Wis. 53711-5399 USA). The original form of this assay was described by Mosmann (J. Immunol. Meth. 65; 55-63. 1983) and gives a colorometric reading whose intensity depends on the conversion, by viable cells, of a tetrazolium salt into a coloured formazan which is easily quantified by colorimetric reading of a 96 well assay plate.

Here are results for eight substances from patent US8883718B2, “Treating cancer” (Theryte Limited, priority 2008, dated 2014).

[ ]: non-standard residue; d: D form.

In the case of “cyc-[PRGPRPVALKLALKLAL] (cyclic; Cyclic peptide; /note=“cyclic peptide”) [THR54]”, the cancer cell-killing activity entry with cancer cell is listed as “active”.
Consider “cyc-[PRGPRPValklalklal] (cyclo(PRGPRPV[dA][dL][dK][dL][dA][dL][dK][dL][dA][dL]); SMILES CC(C)C[C@H]1NC(=O)[C@@H](C)NC(=O)[C@H](C(C)C)NC(=O)[C@@H]2CCCN2C(=O)[C@H](CCCNC(=N)N)NC(=O)[C@@H]2CCCN2C(=O)CNC(=O)[C@H](CCCNC(=N)N)NC(=O)[C@@H]2CCCN2C(=O)[C@@H](CC(C)C)NC(=O)[C@@H](C)NC(=O)[C@@H](CC(C)C)NC(=O)[C@@H](CCCCN)NC(=O)[C@@H](CC(C)C)NC(=O)[C@@H](C)NC(=O)[C@@H](CC(C)C)NC(=O)[C@@H](CCCCN)NC1=O) [THR 75]”, for which the “cancer cell-killing activity at 100 uM” value in the experiment with cancer cell (100 uM concentration) is reported as “remove the activity”.
Take “Cyc-[AAAGGGPRGPRPGGGAAA] (cyclic; Cyclic peptide; /note=“cyclic peptide”)”: the “Cell Killing Fibroblasts” value in the experiment with Fibroblasts is “- - -”. For the same substance, the “Cell Killing RT112” value in experiment [1] is reported as “- - -”.
Consider “Cyc-[AAGPGGPRGPRPGGPGAA] (cyclic; Cyclic peptide; /note=“cyclic peptide”)”, for which the “Cell Killing Fibroblasts” value in the experiment with Fibroblasts is “- - -”. Further, the “Cell Killing RT112” value in experiment [1] is “- - -”.
As to “Ac-PRRPGPVKLALKLALKAL-NH2 [THR51C, control for THR51 in which one arginine was switched with a glycine, reference compound]”, in experiment [2], the “killing of fibroblasts (cell viability, MTS)” value is “non-specific killing”.
In the case of “cyc-[PRGPRPvalklalklal] (cyclo(PRGPRP[dV][dA][dL][dK][dL][dA][dL][dK][dL][dA][dL]); SMILES CC(C)C[C@H]1NC(=O)[C@@H](C)NC(=O)[C@@H](C(C)C)NC(=O)[C@@H]2CCCN2C(=O)[C@H](CCCNC(=N)N)NC(=O)[C@@H]2CCCN2C(=O)CNC(=O)[C@H](CCCNC(=N)N)NC(=O)[C@@H]2CCCN2C(=O)[C@@H](CC(C)C)NC(=O)[C@@H](C)NC(=O)[C@@H](CC(C)C)NC(=O)[C@@H](CCCCN)NC(=O)[C@@H](CC(C)C)NC(=O)[C@@H](C)NC(=O)[C@@H](CC(C)C)NC(=O)[C@@H](CCCCN)NC1=O) [THR79]”, in the experiment with cancer cell, the “activity relative to THR54” value is given as 2-4 times and the cancer cell-killing activity result is reported as “showed cancer cell-killing properties”.
Turning to “Cyc-[GGGGGGPRGPRPGGGGGG] (cyclic; Cyclic peptide; /note=“cyclic peptide”)”, the “Cell Killing Fibroblasts” value in the experiment on Fibroblasts was “- - -”. Besides, the “Cell Killing RT112” value in experiment [1] was “- - -”.
For “Cyc-[GGGGPRGPRPGGGGPRGPRPVPRGPRPV] (cyclic; Cyclic peptide; /note=“cyclic peptide”)”, in the experiment on Fibroblasts, the “Cell Killing Fibroblasts” value is “- - -”. Also, the “Cell Killing RT112” value in experiment [1] is listed as “- - -”.
